BindingDB's records for doi:10.1016/j.bmcl.2007.04.009 (Bristol-Myers Squibb, 2007)

Molecular target: T1, Fatty-acid amide hydrolase 1 (Homo sapiens, UniProt O00519)
T1 sequence (O00519 whole entry): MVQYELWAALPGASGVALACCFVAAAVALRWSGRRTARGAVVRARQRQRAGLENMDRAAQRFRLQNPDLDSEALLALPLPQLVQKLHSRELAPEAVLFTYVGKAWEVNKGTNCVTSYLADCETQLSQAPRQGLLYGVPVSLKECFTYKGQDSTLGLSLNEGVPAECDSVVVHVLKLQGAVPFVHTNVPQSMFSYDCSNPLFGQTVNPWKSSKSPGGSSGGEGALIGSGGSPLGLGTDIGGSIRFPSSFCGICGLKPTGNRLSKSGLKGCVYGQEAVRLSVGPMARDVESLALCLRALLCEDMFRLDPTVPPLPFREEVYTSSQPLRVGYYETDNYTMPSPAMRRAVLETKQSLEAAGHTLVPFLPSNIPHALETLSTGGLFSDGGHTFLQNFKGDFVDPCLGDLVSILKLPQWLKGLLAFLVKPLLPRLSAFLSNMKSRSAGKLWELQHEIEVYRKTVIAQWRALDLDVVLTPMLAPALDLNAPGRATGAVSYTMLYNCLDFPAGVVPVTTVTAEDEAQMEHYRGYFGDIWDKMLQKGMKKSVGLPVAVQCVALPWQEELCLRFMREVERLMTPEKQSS
Assay: FAAH Inhibition Assay
Conditions: pH 9; 22 °C
Procedure: FAAH Inhibition Assay [3H]Ethanolamine produced from [3H]AEA hydrolysis was used to calculate FAAH activity and was measured by scintillation counting of the aqueous phase after extraction of the incubation mixture. Data were expressed as the percentage of [3H]-ethanolamine formed versus vehicle, after subtraction of the background radioactivity determined in the presence of arachidonyl trifluoromethyl ketone (ATFMK), an inhibitor of FAAH. IC50 values were determined using a four-parameter logistic equation for dose-response curves.

IC50	SMILES
130 nM	CCOC(=O)C(C)CCCCCn1c(C)nc(-c2ccccc2)c1-c1ccccc1 (racemic) [D, L mixtures]
31 nM	CCOC(=O)CCCCCCCn1c(CC)nc(-c2ccccc2)c1-c1ccccc1 [ethyl 8-(2-ethyl-4,5-diphenyl-1H-imidazol-1-yl)octanoate]
9900 nM	CCOC(=O)C(CC)CCCCCn1c(C)nc(-c2ccccc2)c1-c1ccccc1 (centres undefined) [D, L mixtures]
> 100000 nM	CCOC(=O)C(CCCCCn1c(C)nc(-c2ccccc2)c1-c1ccccc1)C(C)C (racemic) [D, L mixtures]
